From US12539292B2, “BRM targeting compounds and associated methods of use” (Arvinas Operations, Inc., priority 2018, dated 2026)
Like-named read-outs stand apart in the source and are kept apart here. Each block holds one molecule with its values, some of them ahead of it.

Biological target: T1, BRM (Homo sapiens, UniProt P51531)
T1 construct: In-Cell Western Screen of BRM Degradation in SW1573 Cells; endogenous in cells; host or cells: SW1573
Assay: In-cell Western screen of BRM degradation in SW1573 cells (Dmax and DC50)
Type: cell-based
Method in brief: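 Adherent SW1573 cultures exposed to test compounds for 18-20 h were processed for in-cell Western after PFA fixation and detergent permeabilization. BRM degradation was reported as Dmax and DC50.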

[1] = BRM degradation, SW1573 cells, read-out: DC50
[2] = BRM degradation, SW1573 cells, when tested at the top concentration of between 0.3 and 10 μM, read-out: Dmax (%) (% degraded)
[3] = BRM degradation, read-out: BRM DC50
[4] = target protein degradation, read-out: BRM DC50
[5] = SW1573, % degraded, when tested at the top concentration of between 0.3 and 10 μM, read-out: BRM Dmax (%)
[6] = BRM degradation, SW1573 cells, tested at the top concentration of between 0.3 and 10 μM, read-out: Dmax (%) (% degraded)

T1 sequence (P51531 whole entry): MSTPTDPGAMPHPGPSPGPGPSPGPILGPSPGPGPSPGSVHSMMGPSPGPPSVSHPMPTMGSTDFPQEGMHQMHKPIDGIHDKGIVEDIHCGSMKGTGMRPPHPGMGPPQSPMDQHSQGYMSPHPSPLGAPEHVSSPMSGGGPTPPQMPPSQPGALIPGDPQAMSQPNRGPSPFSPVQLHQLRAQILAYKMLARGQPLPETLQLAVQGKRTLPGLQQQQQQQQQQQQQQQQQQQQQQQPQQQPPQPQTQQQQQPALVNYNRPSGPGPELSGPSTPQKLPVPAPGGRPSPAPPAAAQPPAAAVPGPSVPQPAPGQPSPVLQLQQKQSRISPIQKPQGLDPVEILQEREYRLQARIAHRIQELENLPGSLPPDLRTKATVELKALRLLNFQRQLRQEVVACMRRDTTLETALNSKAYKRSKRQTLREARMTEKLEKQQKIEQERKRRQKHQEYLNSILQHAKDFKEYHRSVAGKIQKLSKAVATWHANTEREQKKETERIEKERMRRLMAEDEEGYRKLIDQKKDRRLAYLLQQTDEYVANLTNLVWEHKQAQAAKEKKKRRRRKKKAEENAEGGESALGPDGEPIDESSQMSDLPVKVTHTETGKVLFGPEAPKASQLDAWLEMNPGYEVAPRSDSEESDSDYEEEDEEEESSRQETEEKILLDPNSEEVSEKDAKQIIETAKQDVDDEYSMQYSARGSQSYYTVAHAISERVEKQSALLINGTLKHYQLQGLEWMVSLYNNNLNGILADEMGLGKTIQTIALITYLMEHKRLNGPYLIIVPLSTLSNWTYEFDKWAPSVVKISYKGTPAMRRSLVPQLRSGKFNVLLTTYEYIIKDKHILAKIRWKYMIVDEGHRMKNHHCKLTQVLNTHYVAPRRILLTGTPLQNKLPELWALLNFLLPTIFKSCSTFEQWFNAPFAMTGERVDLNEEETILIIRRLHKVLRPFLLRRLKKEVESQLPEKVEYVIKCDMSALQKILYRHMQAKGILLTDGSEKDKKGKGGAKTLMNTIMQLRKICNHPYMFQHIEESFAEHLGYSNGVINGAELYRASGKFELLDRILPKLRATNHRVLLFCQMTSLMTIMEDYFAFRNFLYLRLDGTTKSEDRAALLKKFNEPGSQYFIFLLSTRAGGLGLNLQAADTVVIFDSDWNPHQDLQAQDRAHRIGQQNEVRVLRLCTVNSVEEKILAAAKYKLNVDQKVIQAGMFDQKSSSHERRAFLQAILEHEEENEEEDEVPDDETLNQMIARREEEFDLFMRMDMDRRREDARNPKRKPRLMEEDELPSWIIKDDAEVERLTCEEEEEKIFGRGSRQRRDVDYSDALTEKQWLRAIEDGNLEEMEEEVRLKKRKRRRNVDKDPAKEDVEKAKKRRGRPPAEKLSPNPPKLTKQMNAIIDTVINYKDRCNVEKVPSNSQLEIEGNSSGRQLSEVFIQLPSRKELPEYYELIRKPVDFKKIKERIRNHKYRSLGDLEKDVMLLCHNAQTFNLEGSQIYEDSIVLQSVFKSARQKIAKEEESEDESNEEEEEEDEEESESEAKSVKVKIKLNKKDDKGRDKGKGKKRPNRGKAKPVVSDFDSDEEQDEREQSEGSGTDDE

SMILES: Cc1ncsc1-c1ccc([C@H](C)NC(=O)[C@@H]2C[C@@H](O)CN2C(=O)[C@@H](c2cc(OCCOCCOCCCCN3CCC4(CCN(c5cc(-c6ccccc6O)nnc5N)CC4)C3)no2)C(C)C)cc1 [compound 74, (2S,4R)-1-((R)-2-(3-(2-(2-(4-(8-(3-amino-6-(2-hydroxyphenyl)pyridazin-4-yl)-2,8-diazaspiro[4.5]decan-2-yl)butoxy)ethoxy)ethoxy)isoxazol-5-yl)-3-methylbutanoyl)-4-hydroxy-N-((S)-1-(4-(4-methylthiazol-5-yl)phenyl)ethyl)pyrrolidine-2-carboxamide]
- DC50 [1]: 10 to 30 nM
- Dmax [2]: > 75%

- Dmax [2]: < 50%
SMILES: Cc1ncsc1-c1ccc(CNC(=O)[C@@H]2C[C@@H](O)CN2C(=O)[C@H](c2cc(OCCOCCOCCn3cc(-c4cc(-c5ccccc5O)nnc4N)cn3)no2)C(C)C)cc1 [compound 14, (2S,4R)-1-[(2S)-2-(3-[2-[2-(2-[4-[3-amino-6-(2-hydroxyphenyl)pyridazin-4-yl]-1H-pyrazol-1-yl]ethoxy)ethoxy]ethoxy]-1,2-oxazol-5-yl)-3-methylbutanoyl]-4-hydroxy-N-[[4-(4-methyl-1,3-thiazol-5-yl)phenyl]methyl]pyrrolidine-2-carboxamide]

SMILES: Cc1ncsc1-c1ccc([C@H](C)NC(=O)[C@@H]2C[C@@H](O)CN2C(=O)[C@H](c2cc(N3CCCC(CN4CCC(O[C@H]5C[C@H](Oc6cc(N7C8CCC7CN(c7cc(-c9ccccc9O)nnc7N)C8)ccn6)C5)CC4)C3)no2)C(C)C)cc1 (stereo partly drawn) [compound 655, (2S,4R)-1-((2S)-2-(3-(3-((4-((1r,3S)-3-((4-(3-(3-amino-6-(2-hydroxyphenyl)pyridazin-4-yl)-3,8-diazabicyclo[3.2.1]octan-8-yl)pyridin-2-yl)oxy)cyclobutoxy)piperidin-1-yl)methyl)piperidin-1-yl)isoxazol-5-yl)-3-methylbutanoyl)-4-hydroxy-N-((S)-1-(4-(4-methylthiazol-5-yl)phenyl)ethyl)pyrrolidine-2-carboxamide]
- DC50 [1]: > 30 nM

- DC50 [3]: > 30 nM
SMILES: Cc1cc([C@@H](C(=O)N2C[C@H](O)C[C@H]2C(=O)N[C@H](COCCCCCc2cc(-c3ccccc3O)nnc2N)c2ccc(-c3scnc3C)cc2)C(C)C)on1 [compound 527, (2S,4R)-N-((S)-2-((5-(3-amino-6-(2-hydroxyphenyl)pyridazin-4-yl)pentyl)oxy)-1-(4-(4-methylthiazol-5-yl)phenyl)ethyl)-4-hydroxy-1-((S)-3-methyl-2-(3-methylisoxazol-5-yl)butanoyl)pyrrolidine-2-carboxamide]

SMILES: Cc1ncsc1-c1ccc(CNC(=O)[C@H]2C[C@H](O)CN2C(=O)C(c2cc(OCCN3CCN(CCOc4cc(N5C6CCC5CN(c5cc(-c7ccccc7O)nnc5N)C6)ccn4)CC3)no2)C(C)C)cc1 (stereo partly drawn) [compound 57, (2R,4S)-1-(2-(3-(2-(4-(2-((4-(3-(3-amino-6-(2-hydroxyphenyl)pyridazin-4-yl)-3,8-diazabicyclo[3.2.1]octan-8-yl)pyridin-2-yl)oxy)ethyl)piperazin-1-yl)ethoxy)isoxazol-5-yl)-3-methylbutanoyl)-4-hydroxy-N-(4-(4-methylthiazol-5-yl)benzyl)pyrrolidine-2-carboxamide]
- Dmax [2]: < 50%

SMILES: Cc1nccn1-c1ccc([C@H](C)NC(=O)[C@@H]2C[C@@H](O)CN2C(=O)[C@H](c2cc(OCCN3CCC(O[C@H]4C[C@H](Oc5cc(N6C7CCC6CN(c6cc(-c8ccccc8O)nnc6N)C7)ccn5)C4)CC3)no2)C(C)C)cn1 [compound 397, (2S,4R)-1-((2S)-2-(3-(2-(4-((1r,3S)-3-((4-(3-(3-amino-6-(2-hydroxyphenyl)pyridazin-4-yl)-3,8-diazabicyclo[3.2.1]octan-8-yl)pyridin-2-yl)oxy)cyclobutoxy)piperidin-1-yl)cthoxy)isoxazol-5-yl)-3-methylbutanoyl)-4-hydroxy-N-((S)-1-(6-(2-methyl-1H-imidazol-1-yl)pyridin-3-yl)ethyl)pyrrolidine-2-carboxamide]
- DC50 [4]: > 30 nM

SMILES: Cc1ncsc1-c1ccc([C@H](C)NC(=O)[C@@H]2C[C@@H](O)CN2C(=O)[C@@H](c2cc(N3CCN(CC#Cc4ncc(O[C@H]5C[C@H](Oc6cc(N7C8CCC7CN(c7cc(-c9ccccc9O)nnc7N)C8)ccn6)C5)cn4)CC3)no2)C(C)C)cc1 [compound 522, (2S,4R)-1-((2R)-2-(3-(4-(3-(5-((1r,3r)-3-((4-(3-(3-amino-6-(2-hydroxyphenyl)pyridazin-4-yl)-3,8-diazabicyclo[3.2.1]octan-8-yl)pyridin-2-yl)oxy)cyclobutoxy)pyrimidin-2-yl)prop-2-yn-1-yl)piperazin-1-yl)isoxazol-5-yl)-3-methylbutanoyl)-4-hydroxy-N-((S)-1-(4-(4-methylthiazol-5-yl)phenyl)ethyl)pyrrolidine-2-carboxamide]
- DC50 [3]: < 2.5 nM
- Dmax [5]: > 75%

SMILES: Cc1ncsc1-c1ccc([C@H](C)NC(=O)[C@@H]2C[C@@H](O)CN2C(=O)[C@@H](c2cc(OCC[C@H]3CC[C@H](O[C@H]4C[C@H](Oc5cc(N6C7CCC6CN(c6cc(-c8ccccc8O)nnc6N)C7)ccn5)C4)CC3)no2)C(C)C)cn1 [compound 486, (2S,4R)-1-((2R)-2-(3-(2-((1R,4R)-4-((1r,3R)-3-((4-(3-(3-amino-6-(2-hydroxyphenyl)pyridazin-4-yl)-3,8-diazabicyclo[3.2.1]octan-8-yl)pyridin-2-yl)oxy)cyclobutoxy)cyclohexyl)ethoxy)isoxazol-5-yl)-3-methylbutanoyl)-4-hydroxy-N-((S)-1-(6-(4-methylthiazol-5-yl)pyridin-3-yl)ethyl)pyrrolidine-2-carboxamide]
- Dmax [5]: > 75%
- DC50 [4]: < 2.5 nM

SMILES: Cc1nccn1-c1ccc([C@H](C)NC(=O)[C@@H]2C[C@@H](O)CN2C(=O)[C@@H](c2cc(OCC#Cc3ncc(O[C@H]4C[C@H](Oc5cc(N6C7CCC6CN(c6cc(-c8ccccc8O)nnc6N)C7)ccn5)C4)cn3)no2)C(C)C)cc1 [compound 394, (2S,4R)-1-((2R)-2-(3-((3-(5-((1r,3R)-3-((4-(3-(3-amino-6-(2-hydroxyphenyl)pyridazin-4-yl)-3,8-diazabicyclo[3.2.1]octan-8-yl)pyridin-2-yl)oxy)cyclobutoxy)pyrimidin-2-yl)prop-2-yn-1-yl)oxy)isoxazol-5-yl)-3-methylbutanoyl)-4-hydroxy-N-((S)-1-(4-(2-methyl-1H-imidazol-1-yl)phenyl)ethyl)pyrrolidine-2-carboxamide]
- Dmax [5]: > 75%
- DC50 [4]: < 2.5 nM

SMILES: Cc1ncsc1-c1ccc(CNC(=O)[C@@H]2C[C@@H](O)CN2C(=O)[C@@H](c2cc(OCCN3CCN(CCOc4cc(N5C6CCC5CN(c5cc(-c7ccccc7O)nnc5N)C6)ccn4)C[C@@H]3C)no2)C(C)C)cc1 [compound 210, (2S,4R)-1-((2R)-2-(3-(2-((2S)-4-(2-((4-(3-(3-amino-6-(2-hydroxyphenyl)pyridazin-4-yl)-3,8-diazabicyclo[3.2.1]octan-8-yl)pyridin-2-yl)oxy)ethyl)-2-methylpiperazin-1-yl)ethoxy)isoxazol-5-yl)-3-methylbutanoyl)-4-hydroxy-N-(4-(4-methylthiazol-5-yl)benzyl)pyrrolidine-2-carboxamide]
- DC50 [1]: < 2.5 nM
- Dmax [6]: > 75%

SMILES: Cc1cnc(C)n1-c1ccc([C@H](C)NC(=O)[C@@H]2C[C@@H](O)CN2C(=O)[C@@H](c2cc(OCCN3CCC(O[C@H]4C[C@H](Oc5cc(N6C7CCC6CN(c6cc(-c8ccccc8O)nnc6N)C7)ccn5)C4)CC3)no2)C(C)C)cc1 [compound 376, (2S,4R)-1-((2R)-2-(3-(2-(4-((1r,3R)-3-((4-(3-(3-amino-6-(2-hydroxyphenyl)pyridazin-4-yl)-3,8-diazabicyclo[3.2.1]octan-8-yl)pyridin-2-yl)oxy)cyclobutoxy)piperidin-1-yl)ethoxy)isoxazol-5-yl)-3-methylbutanoyl)-N-((S)-1-(4-(2,5-dimethyl-1H-imidazol-1-yl)phenyl)ethyl)-4-hydroxypyrrolidine-2-carboxamide]
- Dmax [5]: > 75%
- DC50 [4]: 10 to 30 nM

SMILES: Cc1ncsc1-c1ccc([C@H](C)NC(=O)[C@@H]2C[C@@H](O)CN2C(=O)[C@H](c2cc(CCCN3CCN(CCOc4cc(N5C6CCC5CN(c5cc(-c7ccccc7O)nnc5N)C6)ccn4)CC3)no2)C(C)C)cc1 [compound 170, (2S,4R)-1-((2S)-2-(3-(3-(4-(2-((4-(3-(3-amino-6-(2-hydroxyphenyl)pyridazin-4-yl)-3,8-diazabicyclo[3.2.1]octan-8-yl)pyridin-2-yl)oxy)ethyl)piperazin-1-yl)propyl)isoxazol-5-yl)-3-methylbutanoyl)-4-hydroxy-N-((S)-1-(4-(4-methylthiazol-5-yl)phenyl)ethyl)pyrrolidine-2-carboxamide]
- DC50 [1]: 2.5 to 10 nM
- Dmax [6]: > 75%

SMILES: Cc1ncsc1-c1ccc([C@H](C)NC(=O)[C@@H]2C[C@@H](O)CN2C(=O)[C@H](c2cc(OCC[C@@H]3CCN(C[C@H]4C[C@H](Oc5cc(N6C7CCC6CN(c6cc(-c8ccccc8O)nnc6N)C7)ccn5)C4)[C@H](C)C3)no2)C(C)C)cc1 (racemic) [compound 579, (2S,4R)-1-((2S)-2-(3-(2-((2R,4R)-1-(((1r,3R)-3-((4-(3-(3-amino-6-(2-hydroxyphenyl)pyridazin-4-yl)-3,8-diazabicyclo[3.2.1]octan-8-yl)pyridin-2-yl)oxy)cyclobutyl)methyl)-2-methylpiperidin-4-yl)ethoxy)isoxazol-5-yl)-3-methylbutanoyl)-4-hydroxy-N-((S)-1-(4-(4-methylthiazol-5-yl)phenyl)ethyl)pyrrolidine-2-carboxamide]
- Dmax (BRM degradation, SW1573 cells, Table 2D, read-out: **Dmax (%) (% degraded)): > 75%
- DC50 (BRM degradation, SW1573 cells, Table 2D, read-out: *DC50): < 2.5 nM
